Reference: ChEMBL document CHEMBL5113477, “Membrane acting Povarov-Doebner derived compounds potently disperse preformed multidrug resistant Gram-positive bacterial biofilms” (Eur J Med Chem, 2022)
Calls of active or inactive are those of the source. No cut-off for these calls is given here.

Assays:
Enterococcus faecalis = assay: Synergistic antibiofilm activity against vancomycin-resistant Enterococcus faecalis ATCC 51575 in TSB broth assessed as dispersal of glucose-induced biofilm by measuring Bithionol MBEC preincubated with glucose for 48 hrs followed by compound addition and measured after 24 hrs by crystal violet staining based checkerboard assay; type: functional
Staphylococcus aureus = assay: Inhibition of biofilm formation in methicillin-resistant Staphylococcus aureus ATCC 33592 in TSB broth at 0.0078 to 4 ug/ml incubated for 48 hrs in presence of glucose by crystal violet staining based analysis; type: functional, organism-based; details: dose 0.0078-4 µg/ml

Oc1ccc([C@@H]2Nc3ccc(S(F)(F)(F)(F)F)cc3[C@H]3[C@@H]4CC[C@@H](C4)[C@H]32)cc1
MBEC (Enterococcus faecalis): 4 µg/mL
inhibition (Staphylococcus aureus): Active
